Earlier results, collected in patent US20190175504A1, “Carbohydrate-Derivatized Liposomes for Targeting Cellular Carbohydrate Recognition Domains of Ctl/Ctld Lectins, and Intracellular Delivery of Therapeutically Active Compounds” (RODOS BioTarget GmbH, priority 2004, published 2019).

What was measured:
[1] = tested on: mouse model of liver damage

| Structure (SMILES) | apoptosis in liver damage [1] | pathologic values of liver parameters (e.g., ALT) (HCV-positive patients) | antifibrotic effect (bile duct-ligated mouse) |
| --- | --- | --- | --- |
| Cc1ccc(C(=O)Nc2ccc(S(=O)(=O)O)c3cc(S(=O)(=O)O)cc(S(=O)(=O)O)c23)cc1NC(=O)c1cccc(NC(=O)Nc2cccc(C(=O)Nc3cc(C(=O)Nc4ccc(S(=O)(=O)O)c5cc(S(=O)(=O)O)cc(S(=O)(=O)O)c45)ccc3C)c2)c1 [suramin] | inhibit apoptosis | – | – |
| C[C@H](NC(=O)C(=O)Nc1ccccc1C(C)(C)C)C(=O)N[C@@H](CC(=O)O)C(=O)COc1c(F)c(F)cc(F)c1F [IDN-6556] | – | significantly reduces | proven beneficial as an antifibrotic agent |
